From PubChem BioAssay AID1259407 (Chemical Carcinogenesis Research Information System (CCRIS), 2018) come the findings set out here.

Each structure is given as a SMILES string. The source made the active and inactive calls. No rule for the calls is given here.

The data set concerns CCRIS mutagenicity, Ames/micronucleus/aberration tests. As to the kind of experiment: CCRIS mutagenicity studies.
Setting [1] is: Test System: AMES SALMONELLA TYPHIMURIUM, Strain/Indicator: TA100, Metabolic Activation: NONE, Method: PREINCUBATION
Setting [2] is: Test System: AMES SALMONELLA TYPHIMURIUM, Strain/Indicator: TA98, Metabolic Activation: NONE, Method: STANDARD PLATE.
[3] abbreviates: Test System: AMES SALMONELLA TYPHIMURIUM, Strain/Indicator: TA98, Metabolic Activation: RAT, LIVER, S-9, AROCLOR 1254, Method: STANDARD PLATE.
[4] abbreviates: Test System: AMES SALMONELLA TYPHIMURIUM, Strain/Indicator: TA100, Metabolic Activation: NONE, Method: STANDARD PLATE.
Where [5] appears, read: Test System: AMES SALMONELLA TYPHIMURIUM, Strain/Indicator: TA100, Metabolic Activation: RAT, LIVER, S-9, AROCLOR 1254, Method: STANDARD PLATE.

Consider `CC(=O)Nc1ccc(N)cc1`, for which the mutagenic call is, setting by setting: (Test System: AMES SALMONELLA TYPHIMURIUM, Strain/Indicator: TA97, Metabolic Activation: HAMSTER, LIVER, S-9, AROCLOR 1254 (10%), Method: PREINCUBATION) “inactive; negative”; (Test System: AMES SALMONELLA TYPHIMURIUM, Strain/Indicator: TA97, Metabolic Activation: NONE, Method: PREINCUBATION) “inactive; negative”; (Test System: AMES SALMONELLA TYPHIMURIUM, Strain/Indicator: TA97, Metabolic Activation: RAT, LIVER, S-9, AROCLOR 1254 (10%), Method: PREINCUBATION) “inactive; negative”; (Test System: AMES SALMONELLA TYPHIMURIUM, Strain/Indicator: TA98, Metabolic Activation: HAMSTER, LIVER, S-9, AROCLOR 1254 (10%), Method: PREINCUBATION) “active; positive”; (Test System: AMES SALMONELLA TYPHIMURIUM, Strain/Indicator: TA98, Metabolic Activation: NONE, Method: PREINCUBATION) “inactive; negative”; (Test System: AMES SALMONELLA TYPHIMURIUM, Strain/Indicator: TA98, Metabolic Activation: RAT, LIVER, S-9, AROCLOR 1254 (10%), Method: PREINCUBATION) “active; positive”. Further, the mutagenic call was “inactive; negative” (Test System: AMES SALMONELLA TYPHIMURIUM, Strain/Indicator: TA100, Metabolic Activation: HAMSTER, LIVER, S-9, AROCLOR 1254 (10%), Method: PREINCUBATION); “inactive; negative” under setting [1]; “inactive; negative” (Test System: AMES SALMONELLA TYPHIMURIUM, Strain/Indicator: TA100, Metabolic Activation: RAT, LIVER, S-9, AROCLOR 1254 (10%), Method: PREINCUBATION); “inactive; negative” (Test System: AMES SALMONELLA TYPHIMURIUM, Strain/Indicator: TA1535, Metabolic Activation: HAMSTER, LIVER, S-9, AROCLOR 1254 (10%), Method: PREINCUBATION); “inactive; negative” (Test System: AMES SALMONELLA TYPHIMURIUM, Strain/Indicator: TA1535, Metabolic Activation: NONE, Method: PREINCUBATION); “inactive; negative” (Test System: AMES SALMONELLA TYPHIMURIUM, Strain/Indicator: TA1535, Metabolic Activation: RAT, LIVER, S-9, AROCLOR 1254 (10%), Method: PREINCUBATION). The mutagenic call is “inactive; negative” (Test System: Ames Salmonella typhimurium, Strain/Indicator: TA98, Metabolic Activation: None, Method: Standard Plate); “inactive; negative” (Test System: Ames Salmonella typhimurium, Strain/Indicator: TA100, Metabolic Activation: None, Method: Standard Plate); “inactive; negative” (Test System: Ames Salmonella typhimurium, Strain/Indicator: TA102, Metabolic Activation: None, Method: Standard Plate); “inactive; negative” (Test System: Ames Salmonella typhimurium, Strain/Indicator: TA1535, Metabolic Activation: None, Method: Standard Plate); “inactive; negative” (Test System: Ames Salmonella typhimurium, Strain/Indicator: TA1537, Metabolic Activation: None, Method: Standard Plate); “inactive; negative” (Test System: UDS RODENT HEPATOCYTES, Strain/Indicator: THY INCORP (NON-S-PHASE), Metabolic Activation: NONE, Method: AUTORADIOGRAPHY).

For the compound `CC1(C)C(=O)[C@]2(C)CC[C@H]1C2`, the mutagenic call is “inactive; negative” (Test System: AMES SALMONELLA TYPHIMURIUM, Strain/Indicator: TA98, Metabolic Activation: HAMSTER, LIVER, S-9, AROCLOR 1254, Method: STANDARD PLATE); “inactive; negative” under setting [2]; “inactive; negative” under setting [3]; “inactive; negative” (Test System: AMES SALMONELLA TYPHIMURIUM, Strain/Indicator: TA100, Metabolic Activation: HAMSTER, LIVER, S-9, AROCLOR 1254, Method: STANDARD PLATE); “inactive; negative” under setting [4]; “inactive; negative” under setting [5]. Further, the mutagenic call is “inactive; negative” (Test System: AMES SALMONELLA TYPHIMURIUM, Strain/Indicator: TA102, Metabolic Activation: HAMSTER, LIVER, S-9, AROCLOR 1254, Method: STANDARD PLATE); “inactive; negative” (Test System: AMES SALMONELLA TYPHIMURIUM, Strain/Indicator: TA102, Metabolic Activation: NONE, Method: STANDARD PLATE); “inactive; negative” (Test System: AMES SALMONELLA TYPHIMURIUM, Strain/Indicator: TA102, Metabolic Activation: RAT, LIVER, S-9, AROCLOR 1254, Method: STANDARD PLATE); “inactive; negative” (Test System: AMES SALMONELLA TYPHIMURIUM, Strain/Indicator: TA1535, Metabolic Activation: HAMSTER, LIVER, S-9, AROCLOR 1254, Method: STANDARD PLATE); “inactive; negative” (Test System: AMES SALMONELLA TYPHIMURIUM, Strain/Indicator: TA1535, Metabolic Activation: NONE, Method: STANDARD PLATE); “inactive; negative” (Test System: AMES SALMONELLA TYPHIMURIUM, Strain/Indicator: TA1535, Metabolic Activation: RAT, LIVER, S-9, AROCLOR 1254, Method: STANDARD PLATE). Moreover, the mutagenic call reads like this: (Test System: AMES SALMONELLA TYPHIMURIUM, Strain/Indicator: TA1537, Metabolic Activation: HAMSTER, LIVER, S-9, AROCLOR 1254, Method: STANDARD PLATE) “inactive; negative”; (Test System: AMES SALMONELLA TYPHIMURIUM, Strain/Indicator: TA1537, Metabolic Activation: NONE, Method: STANDARD PLATE) “inactive; negative”; (Test System: AMES SALMONELLA TYPHIMURIUM, Strain/Indicator: TA1537, Metabolic Activation: RAT, LIVER, S-9, AROCLOR 1254, Method: STANDARD PLATE) “inactive; negative”; (Test System: Mouse lymphoma, Strain/Indicator: L5178Y (tk+/tk-), Metabolic Activation: None, Method: Suspension/plate) “inactive; negative”; (Test System: Mouse lymphoma, Strain/Indicator: L5178Y (tk+/tk-), Metabolic Activation: Rat, Liver, S-9, Aroclor 1254, Method: Suspension/plate) “active; positive”.

As for `c1ccc2c(c1)c1ccccc1c1cc3cnccc3cc21`, the mutagenic call under setting [2] was “inactive; negative”; the mutagenic call (Test System: AMES SALMONELLA TYPHIMURIUM, Strain/Indicator: TA98, Metabolic Activation: RAT, LIVER, S-9, AROCLOR 1254 (10%), Method: STANDARD PLATE) was “active; positive”; the mutagenic call under setting [3] was “active; positive”; the mutagenic call under setting [4] is “inactive; negative”; the mutagenic call (Test System: AMES SALMONELLA TYPHIMURIUM, Strain/Indicator: TA100, Metabolic Activation: RAT, LIVER, S-9, AROCLOR 1254 (10%), Method: STANDARD PLATE) was “active; positive”; the mutagenic call under setting [5] is “active; positive”.

Turning to `O=[N+]([O-])C1CCCC1`, the mutagenic call reads like this: under setting [1], “inactive; negative”; (Test System: AMES SALMONELLA TYPHIMURIUM, Strain/Indicator: TA100, Metabolic Activation: RAT, LIVER, S-9, AROCLOR, Method: PREINCUBATION) “active; positive”; (Test System: AMES SALMONELLA TYPHIMURIUM, Strain/Indicator: TA102, Metabolic Activation: NONE, Method: PREINCUBATION) “inactive; negative”; (Test System: AMES SALMONELLA TYPHIMURIUM, Strain/Indicator: TA102, Metabolic Activation: RAT, LIVER, S-9, AROCLOR, Method: PREINCUBATION) “inactive; negative”; (Test System: UDS RAT HEPATOCYTES, Strain/Indicator: THY INCORP, Metabolic Activation: NONE) “active; positive”.

On to `CCCCCC[C@H]1C(=O)O[C@H](C)[C@H](NC(=O)c2cccc(NC=O)c2O)C(=O)O[C@@H](C)[C@@H]1OC(=O)CC(C)C`, for which the mutagenic call (End Point: In vitro chromosomal aberrations, Test System: Chinese hamster lung (CHL/IU) cells, Metabolic Activation: None) is “inactive; negative”; the mutagenic call (End Point: In vitro chromosomal aberrations, Test System: Chinese hamster lung (CHL/IU) cells, Metabolic Activation: Rat, Liver, S-9, Phenobarbital and 5,6-benzoflavone (16.7%)) is “active; positive (structural aberrations)”; the mutagenic call (End Point: In vitro chromosomal aberrations, Test System: Chinese hamster ovary (CHO-WBL) cells, Metabolic Activation: Rat, Liver, S-9, Phenobarbital and 5,6-benzoflavone (5%)) was “active; positive (structural changes and polyploidy)”; the mutagenic call (End Point: In vitro chromosomal aberrations, Test System: Chinese hamster ovary (CHO-WBL) cells, Metabolic Activation: Rat, Liver, S-9, Phenobarbital and 5,6-benzoflavone (16.7%)) was “active; positive (polyploidy)”; the mutagenic call (Test System: MOUSE LYMPHOMA, Strain/Indicator: L5178Y (TK+/TK-), Metabolic Activation: NONE, Method: SUSPENSION/PLATE) was “inactive; negative”.
